Legend:
[1] = test system: Stop-POST5 complex (RFC-dependent termination); experiment: smTIRF assay of RFC-dependent peptide and tRNA release; format: biochemical, shrimp (Artemia salina)
Description: Immobilization of ribosome Stop-POST 5 complexes. PEGylated flow chambers were incubated in 0.5 mg/ml streptavidin for 5 mins and washed with Buffer 4. Biotinylated Stop-POST5 containing FK(atto647)VRQ-tRNA^Gln (Cy3) in the P-site, was formed at room temperature by incubating Stop-POST4, eEF1A, GTP, and Gln-(Cy3)tRNA^Gln for 5 mins and then injected into the streptavidin-coated slide chamber. After a 5 min incubation, excess unbound ribosome was flowed out. Then eRF1/eRF3±TRIDs was injected dynamically at 3 sec while recording. The injection dead time was subtracted for each particle.
Single-molecule fluorescence imaging. All sm-TIRF studies were carried out at 24° C. All dilutions, complex formation, and single-molecule imaging were carried out in Buffer 4 with an added enzymatic oxygen scavenging system of 2 mM protocatechuic acid (PCA), 50 nM protocatechunate 3,4 dioxygenase (PCD, Sigma Aldrich), 1 mM cyclooctatetraene (COT, Sigma Aldrich), 1 mM 4-nitrobenzyl alcohol (NBA, Sigma Aldrich), and 1.5 mM 6-hydroxy-2,5,7,8-tetramethyl-chromane-2-carboxylic acid (Trolox, Sigma-Aldrich) (Flis et al., Cell reports, 25(10), 2676-2688 (2018).
Image stacks were recorded at 100 ms frame rate on a custom-built objective-type total internal reflection fluorescence (TIRF) microscope based on a commercial inverted microscope (Eclipse Ti-E, Nikon) and capable of performing alternating-laser excitation (ALEX) between 532 nm and 640 nm laser beams using an acousto-optic tunable filter (AOTF, Chen et al., 2011). For the time-lapse experiment, timing of the movies, programmed into NIS-Elements (Nikon) microscope software, were recorded by illuminating the sample for 50-20 frames at 10 frames per s with 15 s or […] intervening dark intervals. Video recording was started and then eRF1/eRF3±TRIDs was injected from a triggered syringe pump at 3 sec while recording. The injection dead time was subtracted for each particle. Triggering of the shutters, AOTF, and pump was synchronized using LabView scripts driven from the camera exposure signal.
Data analysis. Collected movies were analyzed by a custom-made software program developed as an ImageJ plugin (Chen et al., Mol. Cell, 42, 367-377 (2011)), and further analyzed using Python. Distributions of peptide and tRNA dissociation times were fit to eq (5), using maximum likelihood estimation (Bevington and Robinson. Data Reduction and Error Analysis for the Physical Sciences. New York: McGraw-Hill, (2002); Woody et al., Biophys. J. 111, 273-282 (2016)), where P is the probability density.
smTIRF results using Atto(pep)-Cy-Stop-POST5 attached to surface-immobilized ribosomes. Although the distance between the two fluorophores is not close enough to produce FRET, fluorescent pairs could be identified by co-localization on the slide under alternating 532 nm and 640 nm total internal reflection fluorescence (TIRF) illumination. This permits near-simultaneous monitoring of the dynamics of peptide and P-site tRNA release from the Stop-POST5 complex following RFC binding.
To reduce photobleaching of each fluorophore, time-lapse movies were recorded with bursts of 20 or 50 frames at 100 ms frame intervals interleaved by 20 s intervals with the lasers shuttered. Total recording time for each trial was 20 min.
FIG. 8A and FIG. 8C show typical frame by frame recordings indicating a loss of signal for both labeled peptide and labeled tRNA after the addition of the RFC to Atto(pep)-Cy(tRNA)-Stop-POST5. Either peptide (a) or tRNA (b) can dissociate first, in approximately equal proportions. Photobleaching of Cy3-labeled tRNA and Atto647-labeled peptide in the absence of eRF1/eRF3 was much slower (FIG. 8E and FIG. 8F). Under the time lapse illumination employed, mean lifetimes for Atto647-peptide and Cy3-tRNA at 0.32 μM eRF1 and 2 μM eRF3 were each 2.45 min. […]

[2] = molecular target: T1, near-cognate aa-tRNA.eEF1A.GTP complex (TC) binding at a stop codon (Saccharomyces cerevisiae, UniProt P02994); conditions: Ng et al., 2021; cited from earlier work
T1 sequence (P02994 2-458 limits assumed): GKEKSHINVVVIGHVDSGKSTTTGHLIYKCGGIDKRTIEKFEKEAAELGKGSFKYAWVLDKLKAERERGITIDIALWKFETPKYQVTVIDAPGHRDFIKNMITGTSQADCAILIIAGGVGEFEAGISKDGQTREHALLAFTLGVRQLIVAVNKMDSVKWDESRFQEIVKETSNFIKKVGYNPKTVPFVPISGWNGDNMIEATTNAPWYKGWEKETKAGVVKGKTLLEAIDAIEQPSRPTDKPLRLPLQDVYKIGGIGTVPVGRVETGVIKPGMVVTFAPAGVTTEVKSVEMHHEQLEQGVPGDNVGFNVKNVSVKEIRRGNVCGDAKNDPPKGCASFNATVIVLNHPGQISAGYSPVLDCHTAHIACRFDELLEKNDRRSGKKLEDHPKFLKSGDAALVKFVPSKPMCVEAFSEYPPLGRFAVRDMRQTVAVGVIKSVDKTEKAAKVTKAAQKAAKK

[3] = 0.081 μM RFC, 1000 μM ataluren added 4-25 s later, 24° C.

In the case of `O=C(O)c1cccc(-c2noc(-c3ccccc3F)n2)c1` [Ataluren], the “mode of inhibition of RFC” value [1] is reported as “apparent competitive inhibitor”, the “effect on CC value of peptide and tRNA lifetimes” value ([1]; 0.032 μM RFC and 1 mM ataluren, FIG. 10C) is reported as “did not change the CC value” and the “rate constant for elimination of ataluren's inhibitory effect after RFC addition, peptide” value [1, 3] is reported as 9.6 ± 2.6 min⁻¹. For the same molecule, the “rate constant for elimination of ataluren's inhibitory effect after RFC addition, tRNA” value [1, 3] was 10.8 ± 3.6 min⁻¹, the “effect on Vmax values at high RFC concentration” value ([1]; 200, 500, 1000 μM ataluren) was “little affected” and the “KA, inhibition of pentapeptide release rate constants” value ([1]; measured by both smTIRF and fluorescence anisotropy, eRF1 32 nM, FIG. 9H) was 250 ± 20 µM. The “KA, inhibition of tRNA release” value ([1]; smTIRF) was 180 ± 10 µM, the “effects on the rates of peptide and tRNA release” value ([1]; steps after tRNA-peptide bond cleavage) was “no direct effects” and the “effect on productive binding of near-cognate TC at a stop codon” value [2] was “no effect”.
